Data published in PMC5791972 (PLoS ONE, 2018).
Read-outs that look alike come from different tables or passages of the source.

Experiments:
AT1 (h) = molecular target: T1, AT1 (h) (Homo sapiens, UniProt P30556); type: binding; conditions: 1.0E-06 M
T1 construct: host or cells: HEK-293 cells
T1 sequence (P30556 1-359): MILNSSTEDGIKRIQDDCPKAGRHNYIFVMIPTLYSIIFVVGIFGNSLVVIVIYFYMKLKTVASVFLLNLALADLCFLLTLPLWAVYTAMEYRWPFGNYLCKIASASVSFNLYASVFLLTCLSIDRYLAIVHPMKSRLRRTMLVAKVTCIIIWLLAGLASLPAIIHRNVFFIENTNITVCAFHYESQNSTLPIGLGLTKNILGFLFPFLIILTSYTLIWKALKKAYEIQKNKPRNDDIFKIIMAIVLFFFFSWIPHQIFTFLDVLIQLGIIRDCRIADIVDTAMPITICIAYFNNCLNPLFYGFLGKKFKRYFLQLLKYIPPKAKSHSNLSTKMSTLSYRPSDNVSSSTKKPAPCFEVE

PPARγ (h) = molecular target: T2, PPARγ (h) (Homo sapiens, UniProt P37231); type: binding
T2 construct: Cerep; host or cells: E. coli
T2 sequence (P37231 1-505): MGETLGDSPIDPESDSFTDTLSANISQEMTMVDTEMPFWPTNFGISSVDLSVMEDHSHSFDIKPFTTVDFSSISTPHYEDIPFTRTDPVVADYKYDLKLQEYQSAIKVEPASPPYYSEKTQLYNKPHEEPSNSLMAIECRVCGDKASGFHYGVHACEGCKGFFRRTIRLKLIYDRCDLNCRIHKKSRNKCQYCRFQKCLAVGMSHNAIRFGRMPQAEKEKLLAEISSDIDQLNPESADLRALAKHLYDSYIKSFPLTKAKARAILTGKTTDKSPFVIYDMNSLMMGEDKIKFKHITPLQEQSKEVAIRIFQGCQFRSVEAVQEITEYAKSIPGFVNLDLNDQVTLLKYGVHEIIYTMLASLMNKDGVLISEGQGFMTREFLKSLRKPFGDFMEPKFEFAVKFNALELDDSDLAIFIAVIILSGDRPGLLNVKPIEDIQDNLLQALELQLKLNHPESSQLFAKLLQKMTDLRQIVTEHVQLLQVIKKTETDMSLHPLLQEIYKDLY

Ca2+ channel (N) = Ca2+ channel (N) (Rattus norvegicus, UniProt Q02294); assay: biochemical; type: binding
Na+ channel (site 2) = type: binding, rat; conditions: 1.0E-06 M
M2 (h) = molecular target: T3, M2 (h) (Homo sapiens, UniProt P08172); assay: biochemical
T3 sequence (P08172 1-466): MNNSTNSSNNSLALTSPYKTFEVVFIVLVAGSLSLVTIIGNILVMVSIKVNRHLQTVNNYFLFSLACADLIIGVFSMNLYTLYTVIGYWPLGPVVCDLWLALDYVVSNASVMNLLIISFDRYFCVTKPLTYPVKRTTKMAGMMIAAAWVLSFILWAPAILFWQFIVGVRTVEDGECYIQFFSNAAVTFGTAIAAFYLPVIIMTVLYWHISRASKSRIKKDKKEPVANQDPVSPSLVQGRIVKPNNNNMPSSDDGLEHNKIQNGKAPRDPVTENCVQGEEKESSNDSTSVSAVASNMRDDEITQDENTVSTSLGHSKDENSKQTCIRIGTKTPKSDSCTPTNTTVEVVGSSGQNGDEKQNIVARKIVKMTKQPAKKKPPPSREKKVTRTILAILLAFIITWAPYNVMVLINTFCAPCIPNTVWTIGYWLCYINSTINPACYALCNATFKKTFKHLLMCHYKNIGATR

M4 (h) = molecular target: T4, M4 (h) (Homo sapiens, UniProt P08173); assay: biochemical
T4 sequence (P08173 1-479): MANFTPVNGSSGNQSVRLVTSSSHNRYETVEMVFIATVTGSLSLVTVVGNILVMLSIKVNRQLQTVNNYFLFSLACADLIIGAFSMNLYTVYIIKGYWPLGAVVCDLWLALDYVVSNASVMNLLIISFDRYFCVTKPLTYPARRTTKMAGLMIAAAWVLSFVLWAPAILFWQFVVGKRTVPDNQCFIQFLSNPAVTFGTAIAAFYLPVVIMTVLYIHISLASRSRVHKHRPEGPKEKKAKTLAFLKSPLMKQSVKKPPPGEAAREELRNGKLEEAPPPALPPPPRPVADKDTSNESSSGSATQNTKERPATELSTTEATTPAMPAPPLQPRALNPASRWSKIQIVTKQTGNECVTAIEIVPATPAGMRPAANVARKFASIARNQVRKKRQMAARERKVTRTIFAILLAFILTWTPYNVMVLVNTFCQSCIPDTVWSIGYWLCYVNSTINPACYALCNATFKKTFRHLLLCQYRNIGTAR

μ (MOP) (h) = μ (MOP) (h) (Homo sapiens, UniProt P35372); assay: biochemical
5-HT4e (h) = 5-HT4e (h) (Homo sapiens, UniProt Q13639); assay: biochemical
[1] = Brain homogenate assay (unbound fraction in brain); type: in vitro ADME; conditions: rat
Procedure: Frozen rat brains were homogenized in PBS buffer (dilution factor D = 4). The homogenate was spiked with test compounds (1 μM final concentration, final concentration of DMSO was 0.1%) and subsequently dialyzed against PBS buffer for 8 hrs at 37°C in rapid equilibrium dialysis cells (RED-device, Pierce). At the end of the dialysis period, the dialysate was transferred into reaction tubes and mixed with an analytical internal standard. Tissue homogenate was added to buffer samples and buffer was added to tissue samples to ensure identical matrix composition for bioanalytical measurement. After protein precipitation using acetonitrile, samples were measured by LC-MS/MS. The free fraction was calculated as fu,app = (CPBS/Chomogenate). Since the brains were homogenized in the buffer, the observed free fraction values (fu,app) were extrapolated to the fractions unbound in the brain (fu*) based on the dilution (D) using the following formula: fu*=(1/D)/((1/fu,app−1)+1/D).

[2] = Pharmacokinetic studies in mice; conditions: male, C57BL/6, mouse, in vivo

Chain of Ca2+ channel (N) (Q02294 whole entry): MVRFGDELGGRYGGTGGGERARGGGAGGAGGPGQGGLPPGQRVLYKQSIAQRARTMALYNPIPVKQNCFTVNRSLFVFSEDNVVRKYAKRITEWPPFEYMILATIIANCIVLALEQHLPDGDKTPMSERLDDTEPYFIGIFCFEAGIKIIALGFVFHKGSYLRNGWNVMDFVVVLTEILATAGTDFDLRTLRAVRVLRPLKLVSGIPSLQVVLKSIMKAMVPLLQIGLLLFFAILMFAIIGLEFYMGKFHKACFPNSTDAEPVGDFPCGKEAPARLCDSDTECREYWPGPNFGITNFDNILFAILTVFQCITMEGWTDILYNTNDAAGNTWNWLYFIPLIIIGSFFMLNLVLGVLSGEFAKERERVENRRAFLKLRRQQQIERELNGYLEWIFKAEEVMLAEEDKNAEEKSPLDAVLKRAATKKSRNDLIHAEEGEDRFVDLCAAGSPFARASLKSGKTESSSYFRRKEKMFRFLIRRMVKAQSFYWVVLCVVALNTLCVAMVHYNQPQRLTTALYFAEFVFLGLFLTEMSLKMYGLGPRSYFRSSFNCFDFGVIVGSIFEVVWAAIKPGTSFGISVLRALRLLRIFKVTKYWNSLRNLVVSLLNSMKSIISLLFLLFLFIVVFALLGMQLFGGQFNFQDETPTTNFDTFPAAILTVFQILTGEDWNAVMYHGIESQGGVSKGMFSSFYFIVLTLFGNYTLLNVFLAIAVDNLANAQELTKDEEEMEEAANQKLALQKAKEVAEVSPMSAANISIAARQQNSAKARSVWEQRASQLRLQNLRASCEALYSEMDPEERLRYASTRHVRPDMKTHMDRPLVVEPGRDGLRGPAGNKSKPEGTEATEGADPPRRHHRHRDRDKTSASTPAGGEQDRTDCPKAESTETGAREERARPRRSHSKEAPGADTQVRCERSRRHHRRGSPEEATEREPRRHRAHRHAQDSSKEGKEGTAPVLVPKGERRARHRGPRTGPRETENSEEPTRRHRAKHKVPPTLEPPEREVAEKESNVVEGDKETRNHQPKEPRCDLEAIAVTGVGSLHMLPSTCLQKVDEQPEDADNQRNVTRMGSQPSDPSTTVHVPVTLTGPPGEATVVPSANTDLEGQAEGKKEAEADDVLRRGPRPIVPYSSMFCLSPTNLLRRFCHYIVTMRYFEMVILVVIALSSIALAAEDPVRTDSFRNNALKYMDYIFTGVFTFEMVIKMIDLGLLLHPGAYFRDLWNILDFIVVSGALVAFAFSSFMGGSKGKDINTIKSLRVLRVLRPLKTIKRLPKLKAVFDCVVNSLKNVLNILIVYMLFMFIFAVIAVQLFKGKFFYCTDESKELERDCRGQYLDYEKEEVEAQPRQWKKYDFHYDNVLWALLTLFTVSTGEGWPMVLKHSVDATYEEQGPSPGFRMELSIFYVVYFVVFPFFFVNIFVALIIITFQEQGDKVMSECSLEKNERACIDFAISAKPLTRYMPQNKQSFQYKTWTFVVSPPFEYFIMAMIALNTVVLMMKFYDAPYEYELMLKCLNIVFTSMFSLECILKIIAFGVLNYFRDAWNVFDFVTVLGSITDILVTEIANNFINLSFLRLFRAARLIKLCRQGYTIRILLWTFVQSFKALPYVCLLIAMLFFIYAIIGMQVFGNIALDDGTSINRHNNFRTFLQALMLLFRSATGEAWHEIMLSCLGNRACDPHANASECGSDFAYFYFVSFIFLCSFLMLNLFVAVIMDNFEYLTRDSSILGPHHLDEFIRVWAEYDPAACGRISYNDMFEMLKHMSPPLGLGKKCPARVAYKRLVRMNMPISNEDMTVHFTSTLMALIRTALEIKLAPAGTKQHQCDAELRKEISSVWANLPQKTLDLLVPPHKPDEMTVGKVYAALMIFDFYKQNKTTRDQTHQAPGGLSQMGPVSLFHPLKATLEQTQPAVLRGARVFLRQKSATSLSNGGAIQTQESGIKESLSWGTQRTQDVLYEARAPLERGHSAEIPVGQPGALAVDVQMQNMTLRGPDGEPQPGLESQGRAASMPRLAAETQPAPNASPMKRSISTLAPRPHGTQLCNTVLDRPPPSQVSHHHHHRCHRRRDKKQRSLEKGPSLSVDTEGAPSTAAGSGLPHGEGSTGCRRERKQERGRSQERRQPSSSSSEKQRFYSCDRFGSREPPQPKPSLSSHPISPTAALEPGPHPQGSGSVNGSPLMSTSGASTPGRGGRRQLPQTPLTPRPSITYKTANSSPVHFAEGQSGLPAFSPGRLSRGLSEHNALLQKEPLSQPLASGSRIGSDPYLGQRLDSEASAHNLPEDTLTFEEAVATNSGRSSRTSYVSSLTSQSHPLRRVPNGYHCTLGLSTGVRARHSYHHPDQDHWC
Chain of Ca2+ channel (N) (P54290 25-944 partner limits assumed): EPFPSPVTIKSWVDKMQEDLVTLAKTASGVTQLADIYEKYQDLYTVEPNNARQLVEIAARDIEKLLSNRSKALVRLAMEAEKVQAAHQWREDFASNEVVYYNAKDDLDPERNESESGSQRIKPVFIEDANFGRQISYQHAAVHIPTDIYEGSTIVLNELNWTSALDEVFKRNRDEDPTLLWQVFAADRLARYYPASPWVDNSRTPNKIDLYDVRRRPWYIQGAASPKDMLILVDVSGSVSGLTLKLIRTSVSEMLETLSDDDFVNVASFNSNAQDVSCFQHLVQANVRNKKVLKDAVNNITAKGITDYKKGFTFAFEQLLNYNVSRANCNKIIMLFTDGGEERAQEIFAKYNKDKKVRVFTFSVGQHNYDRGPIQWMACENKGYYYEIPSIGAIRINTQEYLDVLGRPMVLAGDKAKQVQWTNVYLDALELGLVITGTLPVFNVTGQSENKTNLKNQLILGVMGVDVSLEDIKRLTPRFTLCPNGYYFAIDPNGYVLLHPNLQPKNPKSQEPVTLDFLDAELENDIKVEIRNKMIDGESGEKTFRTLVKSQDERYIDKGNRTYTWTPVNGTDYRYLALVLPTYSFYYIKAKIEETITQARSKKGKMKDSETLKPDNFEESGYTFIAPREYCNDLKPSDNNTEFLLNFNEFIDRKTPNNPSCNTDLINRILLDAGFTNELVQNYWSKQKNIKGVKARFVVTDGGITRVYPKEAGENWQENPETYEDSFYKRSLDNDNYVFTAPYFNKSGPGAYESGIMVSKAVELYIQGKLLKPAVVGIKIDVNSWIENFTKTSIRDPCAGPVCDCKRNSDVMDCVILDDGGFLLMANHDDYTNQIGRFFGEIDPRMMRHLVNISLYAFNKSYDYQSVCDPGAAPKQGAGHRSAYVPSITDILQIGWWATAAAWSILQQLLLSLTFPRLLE
Chain of Ca2+ channel (N) (P54290 945-1091 partner limits assumed): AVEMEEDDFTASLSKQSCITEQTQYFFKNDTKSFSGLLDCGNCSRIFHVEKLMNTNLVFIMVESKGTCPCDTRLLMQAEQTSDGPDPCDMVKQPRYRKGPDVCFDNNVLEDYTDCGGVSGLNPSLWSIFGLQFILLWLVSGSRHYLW
Chain of Ca2+ channel (N) (P54287 whole entry partner): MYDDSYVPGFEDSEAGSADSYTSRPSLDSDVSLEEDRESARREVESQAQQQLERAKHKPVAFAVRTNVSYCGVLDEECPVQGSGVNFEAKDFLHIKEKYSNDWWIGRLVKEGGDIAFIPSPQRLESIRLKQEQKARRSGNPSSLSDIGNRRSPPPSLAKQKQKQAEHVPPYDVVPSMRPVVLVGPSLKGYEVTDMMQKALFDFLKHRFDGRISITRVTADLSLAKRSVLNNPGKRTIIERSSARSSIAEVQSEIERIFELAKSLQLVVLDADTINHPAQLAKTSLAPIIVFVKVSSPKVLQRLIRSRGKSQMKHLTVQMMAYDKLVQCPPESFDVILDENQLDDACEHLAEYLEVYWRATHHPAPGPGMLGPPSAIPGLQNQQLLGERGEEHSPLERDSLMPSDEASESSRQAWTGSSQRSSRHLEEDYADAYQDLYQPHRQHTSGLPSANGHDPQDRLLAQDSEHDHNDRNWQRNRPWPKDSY
Chain of 5-HT4e (h) (Q13639 1-378 isoform Q13639-5): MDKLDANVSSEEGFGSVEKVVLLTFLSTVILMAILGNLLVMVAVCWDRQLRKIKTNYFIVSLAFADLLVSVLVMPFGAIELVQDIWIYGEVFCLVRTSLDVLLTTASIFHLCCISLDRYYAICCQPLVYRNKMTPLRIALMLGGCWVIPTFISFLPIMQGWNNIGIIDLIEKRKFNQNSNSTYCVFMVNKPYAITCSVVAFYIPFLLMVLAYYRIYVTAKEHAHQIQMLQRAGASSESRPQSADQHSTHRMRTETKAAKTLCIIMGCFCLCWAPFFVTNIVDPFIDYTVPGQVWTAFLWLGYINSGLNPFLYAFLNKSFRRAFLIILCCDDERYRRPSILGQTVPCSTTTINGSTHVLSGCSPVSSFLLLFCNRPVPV
Chain of μ (MOP) (h) (P35372 whole entry): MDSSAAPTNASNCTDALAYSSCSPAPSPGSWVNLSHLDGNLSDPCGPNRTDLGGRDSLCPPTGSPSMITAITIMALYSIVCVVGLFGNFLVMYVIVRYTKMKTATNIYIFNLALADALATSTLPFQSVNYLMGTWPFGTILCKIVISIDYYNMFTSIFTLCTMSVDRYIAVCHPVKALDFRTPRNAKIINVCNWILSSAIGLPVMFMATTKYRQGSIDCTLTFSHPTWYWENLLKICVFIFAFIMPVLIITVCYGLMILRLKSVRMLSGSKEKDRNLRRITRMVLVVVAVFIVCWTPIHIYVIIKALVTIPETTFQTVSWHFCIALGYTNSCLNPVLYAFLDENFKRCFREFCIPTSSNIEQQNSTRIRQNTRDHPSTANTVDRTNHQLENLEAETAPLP

SMILES: Cn1c(=O)n(CCCO)c(=O)c2c1nc(Oc1cccc(OC(F)(F)F)c1)n2Cc1ccc(Cl)cc1 [HC-608]
- inhibition at 1 µM (AT1 (h); read-out: % Inhibition 1st): 0.5%
- inhibition at 1 µM (AT1 (h); read-out: % Inhibition 2nd): -6%
- inhibition at 1 µM (AT1 (h); read-out: % Inhibition Mean): -2.7%
- inhibition at 1 µM (PPARγ (h); 1.0E-06 M, read-out: % Inhibition 1st): 6.7%
- inhibition at 1 µM (PPARγ (h); 1.0E-06 M, read-out: % Inhibition 2nd): 16.2%
- inhibition at 1 µM (PPARγ (h); read-out: % Inhibition Mean): 11.5%
- inhibition at 1 µM (Ca2+ channel (N); read-out: % Inhibition 1st): -5.9%
- inhibition at 1 µM (Ca2+ channel (N); read-out: % Inhibition 2nd): -13.1%
- inhibition at 1 µM (Ca2+ channel (N); read-out: % Inhibition Mean): -9.5%
- % Inhibition 1st (Na+ channel (site 2)): 12%
- % Inhibition 2nd (Na+ channel (site 2)): -7.3%
- % Inhibition Mean (Na+ channel (site 2)): 2.3%
- inhibition at 1 µM (M2 (h); read-out: % Inhibition 1st): -15.9%
- inhibition at 1 µM (M2 (h); read-out: % Inhibition 2nd): -14.2%
- inhibition at 1 µM (M2 (h); read-out: % Inhibition Mean): -15%
- inhibition at 1 µM (M4 (h); read-out: % Inhibition 1st): -16.1%
- inhibition at 1 µM (M4 (h); read-out: % Inhibition 2nd): 3.9%
- inhibition at 1 µM (M4 (h); read-out: % Inhibition Mean): -6.1%
- inhibition at 1 µM (μ (MOP) (h); read-out: % Inhibition 1st): 0.1%
- inhibition at 1 µM (μ (MOP) (h); read-out: % Inhibition 2nd): -6.8%
- inhibition at 1 µM (μ (MOP) (h); read-out: % Inhibition Mean): -3.3%
- inhibition at 1 µM (5-HT4e (h); read-out: % Inhibition 1st): -3.7%
- inhibition at 1 µM (5-HT4e (h); read-out: % Inhibition 2nd): 10.6%
- inhibition at 1 µM (5-HT4e (h); read-out: % Inhibition Mean): 3.4%

SMILES: Cn1c(=O)n(CCCO)c(=O)c2c1nc(Oc1cccc(Cl)c1)n2Cc1ccc(Cl)cc1 [HC-070]
- nonspecific tissue binding ([1]; 8 h, 1 μM): > 99%
- fraction unbound at 8 h, 1 μM ([1]; brain homogenate): 0.0028 ± 0.0002
- half-life ([2]; iv, 1 mg/kg): 210 min
- half-life ([2]; po, 10 mg/kg): 198 min
